Assay results reported in patent US7045495B2 (Sloan-Kettering Institute for Cancer Research, priority 1996, dated 2006).
Values joined by “and” are separate entries in the source; they are usually repeats but may differ in a detail not shown here. Equal entries are not always repeated.

Experiments:
[1] = molecular target: cyclic-adenosine monophosphate-dependent protein kinase A; conditions: read-out: concentration for 50% inhibition of protein kinase A; safingol; cited from earlier work
[2] = set-up: species or system patients; conditions: in vivo
Experimental: Individual patients could receive up to six cycles of treatment with the same dose of safingol and doxorubicin (DOX) every 21 days, until signs of tumor progression or unacceptable toxicity occurs, or until the patient's cumulative life-time dose of doxorubicin exceeds 400 mg/m^2 with an additional cycle of treatment. Prior DOX therapy was allowed up to a dose of 280 mg/m^2 as long as the left ventricular ejection fraction was>50%. The starting dose of safingol was 15 mg/m^2.
In fact the white blood count nadirs have increased with increasing safingol dose. Dose escalation above 120 mg/m^2 is planned.
This was associated with no changes in reticulocyte count, no evidence of hemolysis on the peripheral smear, no “pink” discoloration to the plasma, and no evidence or urine hemosiderin. This was believed to be related to relatively poor venous access which only became apparent on the first day of therapy. The patient was retreated according to applicants, protocol criteria for grade I hemolysis which included infusion of safingol through a central vein and at one half the concentration (twice the total volume but the same total dose). Under these conditions the patient has experienced no further evidence of hemolysis.

[3] = test system: PKC; conditions: cited from earlier work
[4] = test system: MKN-74; assay: cell viability, trypan blue dye exclusion; type: cell-based, human; conditions: 24 hours, single drug or concomitant; bryostatin 1 μM, Mitomycin-C 1 μg/ml, Taxol 50 μM, Cisplatin 50 μM
Excerpt: Recently our laboratory has studied the effects of combining bryostatin with chemotherapy both in vitro and in vivo against solid tumors. For our in vitro studies, we have been using the human gastric cancer cell line MKN-74. Cytotoxicity has been examined both by cell viability assays using trypan blue dye exclusion assays and by the induction of apoptosis using quantitative fluorescent microscopy.

Row | SMILES | IC50 [1] [µM] | dose limiting hematologic toxicity [2] | hemolysis [2] | concentration range that inhibits PKC activity [3] | IC50 ([3]; safingol, in vitro, read-out: concentration which inhibits PKC enzyme activity by 50%) | % of Cells Alive [4] [%]
1 | CCCCCCCCCCCCCCC[C@H](O)[C@@H](N)CO [safingol, L-threo-dihydrosphingosine] | > 218 | no-dose limiting hematologic toxicity | only one patient has experienced a grade I hemolysis | micromolar ranges | 33 µM and 30 µM | –
2 | CO[C@@]12[C@H](COC(N)=O)C3=C(C(=O)C(C)=C(N)C3=O)N1C[C@@H]1N[C@@H]12 [MMC, Mitomycin-C] | – | – | – | – | – | 76
